The target in the experiment is Estrogen receptor (Homo sapiens, UniProt Q92731+P03372). To be noted: mcf-7.
Description: In vitro inhibition of estrogen-stimulated MCF-7 cell proliferation
For `CN(CCN1CCCCC1)c1ccc(C(=O)c2c(-c3ccc(O)cc3)sc3cc(O)ccc23)cc1`, the IC50 (usually the midpoint of a concentration-inhibition curve) turned out to be 10 nM. For `O=C(c1ccc(NCCN2CCCCC2)cc1)c1c(-c2ccc(O)cc2)sc2cc(O)ccc12`, the IC50 came to 2 nM. Molecule `COc1ccc(-c2sc3cc(OC)ccc3c2C(=O)c2ccc(CCCN3CCCCC3)cc2)cc1` showed an IC50 of 1000 nM. Take `COc1ccc(-c2sc3cc(OC)ccc3c2C(=O)c2ccc(S(=O)(=O)CCN3CCCCC3)cc2)cc1`: the IC50 is given as over 1000 nM. For `O=C(c1ccc(SCCN2CCCCC2)cc1)c1c(-c2ccc(O)cc2)sc2cc(O)ccc12` the value was 0.9 nM. `O=C(c1ccc(CCCN2CCCCC2)cc1)c1c(-c2ccc(O)cc2)sc2cc(O)ccc12` displayed an IC50 of 10 nM. In the case of `O=C(c1ccc(S(=O)(=O)CCN2CCCCC2)cc1)c1c(-c2ccc(O)cc2)sc2cc(O)ccc12`, the IC50 is reported as 30 nM.

Values taken from ChEMBL document CHEMBL1131940 (Bioorg Med Chem Lett, 1999).
